From patent US7524669B2 (priority 2002, dated 2009) come the findings set out here.

Like-named read-outs stand apart in the source and are kept apart here.

Series [1] has as its target T1, AQP9 (Rattus norvegicus, UniProt P56627). The note with it: for effect of AQP9 expression on resistance/sensitivity of strain HD9: HD9 pAQP9, galactose induced, FIG. 3.
Series [2] has as its target T1, AQP9. It is filed as cell-based, Saccharomyces cerevisiae.
In series [3] the test system is S. cerevisiae HD9 (fps1Δ acr3Δ ycf1Δ). Particulars: HD9 vs MG102 (acr3Δ ycf1Δ), FIG. 3.
The test system is the same in series [4]. Format: cell-based, Saccharomyces cerevisiae. The note with it: strain HD9 (FPS1 deleted), 5 μM metalloid, FIG. 4.
For a further series, the system named is AQP7. The note with it: HD9 pAQP7.
The test system of series [5] is S. cerevisiae strains W303, W303 pYCF1, MG100, MG100 pYCF1. Description: Metal ion resistance assay (growth in liquid SD medium), Example 1.
The test system is the same in series [6]. Description: Arsenite transport (accumulation) assay in intact cells, Example 1. It is filed as cell-based, Saccharomyces cerevisiae. Particulars: FIG. 2.

T1 sequence (P56627 whole entry): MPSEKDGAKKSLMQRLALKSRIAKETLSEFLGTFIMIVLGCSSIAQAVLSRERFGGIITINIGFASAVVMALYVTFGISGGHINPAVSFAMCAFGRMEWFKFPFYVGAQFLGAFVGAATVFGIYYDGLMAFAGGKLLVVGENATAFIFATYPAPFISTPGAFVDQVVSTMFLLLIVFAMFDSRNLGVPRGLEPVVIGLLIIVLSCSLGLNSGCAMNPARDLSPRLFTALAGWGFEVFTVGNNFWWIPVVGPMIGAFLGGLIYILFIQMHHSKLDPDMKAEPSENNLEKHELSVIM

For the molecule `[Cl][Cd][Cl]` [cadmium, cadmium chloride], the “effect of AQP9 expression on resistance/sensitivity of strain HD9” value on AQP9 [1] is “no effect on sensitivity”.
Consider `OCC(O)CO` [glycerol], for which the “inhibition of 73As(OH)3 uptake by glycerol” value against AQP9 [2] is reported as “reduced the uptake”. On AQP9 [1], the “effect of glycerol on AQP9-related arsenite sensitivity in growth assays” value is “small reversal of the AQP9-related arsenite sensitivity”.
Consider sodium arsenate, for which, on AQP9 [1], the “effect of AQP9 expression on resistance/sensitivity of strain HD9” value is recorded as “no effect on sensitivity”.
In the case of `O.O.O.O=C([O-])[C@H]([O-])[C@@H]([O-])C(=O)[O-].O=C([O-])[C@H]([O-])[C@@H]([O-])C(=O)[O-].[K+].[K+].[Sb+3].[Sb+3]` [antimonite, potassium antimonyl tartrate], the “resistance of strain HD9 compared to strain MG102 (growth)” value in series [3] is “relatively resistant”. Further, the “transport of radioactive metalloid into cells” value in series [4] was “low rates of transport”; at AQP9 [2], “facilitates transport”. The “effect of AQP9 expression on resistance/sensitivity of strain HD9” value at AQP9 [1] was “reversed”. The “effect of AQP7 on a plasmid on resistance of strain HD9” value in the series on AQP7 was “no effect on resistance”.
Consider `O=[As]O` [arsenite, sodium arsenite], for which the “resistance of strain HD9 compared to strain MG102 (growth)” value in series [3] was “resistant”. In addition, the “arsenite sensitivity (growth)” value in series [5] (strain MG100 (ACR3Δ), FIG. 1) is given as “extremely arsenic sensitive”. Also, the “arsenite resistance (growth)” value in series [5] (strain MG100 pYCF1, FIG. 1) is “restores arsenite resistance”; in series [5] (strain W303 (wild type ACR3), FIG. 1) it was “resistant to higher concentrations”; in series [5] (strain W303 pYCF1, Ycf1p expressed on a plasmid, FIG. 1), “no effect on resistance”. Moreover, the “transport of radioactive metalloid into cells” value is listed as “reduced” in series [4] and “accumulated more ^73As(OH)3 than the parental strain MG102” at AQP9 [2] (HD9 expressing AQP9, 5 μM metalloid, FIG. 4). Moreover, the “accumulation of 73As(OH)3 in intact cells” value is recorded as “accumulates more ^73As(III) than the wild type” in series [6] (strain MG100, 1.0 μM arsenite); “accumulate much higher amounts of arsenite” in series [6] (strain MG100 pYCF1, 1.0 μM arsenite); “accumulate the least arsenic” in series [6] (strain W303, 1.0 μM arsenite); “increases the amount of radioactive arsenite accumulated” in series [6] (strain W303 pYCF1, 1.0 μM arsenite). Moreover, the “effect of AQP9 expression on resistance/sensitivity of strain HD9” value on AQP9 [1] is on record as “reversed”. For the same molecule, the “effect of AQP7 on a plasmid on resistance of strain HD9” value in the series with AQP7 was “no effect on resistance”.
